Source: patent US20160106711A1, “3-3-Di-Substituted-Oxindoles as Inhibitors of Translation Initiation” (President and Fellows of Harvard College, priority 2012, published 2016)

What was measured:
KLN = experiment: Cell growth assay (sulforhodamine B), KLN cells; type: cell-based, mouse; conditions: Mus musculus, 120 h, 5 days, SRB
Method: […] Plates were then incubated with 0.4% SRB in 1% acetic acid for 1 h, washed with 1% acetic acid to remove the unbound dye, and air-dried. The bound dye was solubilized by addition of 10 mM Tris (pH 10), and the absorbance was determined in a Titertek Multiscan plate reader at 490 nm. The data calculations were carried out as described (the values for mean±SD of data from replicate wells are calculated): data are expressed in terms of % T/C [(OD of treated cells/OD of control cells)×100], as a measure of cell viability and survival in the presence of test materials. Calculations are also made for the concentration of test agents giving a T/C value of 50%, or 50% growth inhibition (IC50). With the SRB assay, a measure is made of the cell population density at time 0 (the time at which drugs are added) from two extra reference plates of inoculated cells fixed with TCA just prior to drug addition to the test plates. Thus, we have three measurements: control optical density (C), test optical density (T), and optical density at time zero (T0). The calculation is 100×[(T−T0)/(C−T0)]. If T is less than T0, cell killing has occurred and can be calculated from 100×[(T−T0)/T0]. Thus, for each drug-cell line combination, a dose-response curve is generated and three levels of effect are calculated.

CRL-2351 = experiment: Cell growth assay (sulforhodamine B), CRL-2351 cells; type: cell-based, human; conditions: Homo sapiens, 120 h, 5 days, SRB
Method: (§1) Adherent mouse (KLN) and human solid tumor cells (CRL-2351, and CRL-2813) were plated in 96-well plates and maintained for 5 days in the presence of 0.54 to 6 μM of individual compound, and cell proliferation was measured by the sulforhodamine B (SRB) assay as described in ref. 11: briefly, cells were fixed in 10% cold trichloroacetic acid at 4° C. for 1 h, extensively washed with double-distilled H2O and air-dried. Plates were then incubated with 0.4% SRB in 1% acetic acid for 1 h, washed with 1% acetic acid to remove the unbound dye, and air-dried. The bound dye was solubilized by addition of 10 mM Tris (pH 10), and the absorbance was determined in a Titertek Multiscan plate reader at 490 nm. The data calculations were carried out as described (the values for mean±SD of data from replicate wells are calculated): data are expressed in terms of % T/C [(OD of treated cells/OD of control cells)×100], as a measure of cell viability and survival in the presence of test materials. Calculations are also made for the concentration of test agents giving a T/C value of 50%, or 50% growth inhibition (IC50). With the SRB assay, a measure is made of the cell population density at time 0 (the time at which drugs are added) from two extra reference plates of inoculated cells fixed with TCA just prior to drug addition to the test plates. Thus, we have three measurements: control optical density (C), test optical density (T), and optical density at time zero (T0). The calculation is 100×[(T−T0)/(C−T0)]. If T is less than T0, cell killing has occurred and can be calculated from 100×[(T−T0)/T0]. Thus, for each drug-cell line combination, a dose-response curve is generated and three levels of effect are calculated.

CRL-2813 = experiment: Cell growth assay (sulforhodamine B), CRL-2813 cells; type: cell-based, human; conditions: Homo sapiens, CRL2813, 120 h, 5 days, SRB
Method: as §1

[1] = system: eIF2•GTP•Met-tRNAi ternary complex; experiment: Ternary complex assay (ATF-4 assay), dual luciferase firefly/renilla ratio; type: cell-based, mouse; conditions: Mus musculus; for maximal fold induction at 80 µM / maximal fold induction at 10 µM / maximal fold induction at 20 µM: read-out: ATF-4 Xmax; for maximal fold induction at 40 µM: read-out: ATF-4 Xmax @ 40 μM
Text: For assay development, a bi-directional plasmid was designed in which a common promoter/enhancer complex drives the transcription of firefly luciferase (F-luc) ORF fused to the 5′ untranslated region (UTR) of ATF-4, and of the renilla luciferase (R-luc) ORF fused to a 90-nucleotide 5′ UTR derived from the plasmid (FIG. 6A). Because the tetracycline-regulated transactivator ((tTA), required for driving transcription from this vector) is not normally expressed in the mammalian cells, stable KLN cancer cells were constructed that expressed tTA (KLN-tTA).
The KLN-tTA colonies that drove expression of reporter genes from pBISA-DL plasmid were selected by transient transfection and dual luciferase assay. One of these KLN-tTA cell lines was transfected with the pBISA-DL^(ATF-4) expression vector, stable colonies were selected by dual luciferase assay and expanded.
Plasmids and Ternary Complex Assay
(ATF-4 Assay). Briefly, bi-directional mammalian expression vector pBI (Clontech, CA) was modified to expand the multiple cloning sites (MCSs) and designated thereafter as pBISA. This vector contains seven copies of the tetracycline-regulated transactivator response element (TRE), which together act as core promoter/enhancer. The TRE is flanked on both sides by minimal human cytomegalovirus (CMV) minimal promoters allowing bi-directional transcription and two MCSs. Firefly and renilla luciferases were subcloned into MCS-I and MCS-II, respectively. This plasmid, designated pBISA-DL, transcribes two mRNAs that contain the 90 nucleotide plasmid derived 5′UTR (same sequence in both mRNAs), and the ORF encoding either firefly or renilla luciferase followed by a polyadenylation sequence as described in Ziegeler, G.; Ming, J.; Koseki, J. C.; Sevinc, S.; Chen, T.; Ergun, S.; Qin, X.; Aktas, B. H. J. Biol. Chem. 2010, 285, 15408 hereby incorporated by reference. This plasmid was further modified by inserting the 5′UTR of ATF-4 into MCS-I in front of the firefly luciferase mRNA. Transcription from this direction generates an mRNA that contains the firefly luciferase ORF preceded by a 5′UTR composed of 90 nucleotides derived from the plasmid and 267 nucleotides derived from the 5′UTR of ATF-4 mRNA. Transcription from the other direction generates an mRNA that contains the renilla luciferase ORF proceeded only by the 90-nucleotide plasmid-derived sequence in the 5′UTR. This expression plasmid is called pBISA-DL(ATF-4). In the dual luciferase assay, cells expressing firefly and renilla luciferases were lysed and the extracts assayed with a Dual-Glo Luciferase assay kit, per manufacturer's instruction (Promega Inc., Madison, Wis.). The data calculations were carried out as the ratio of firefly to renilla luciferase signal as described in Chen, T.; Ozel, D.; Qiao, Y.; Harbinski, F.; Chen, L.; Denoyelle, S.; He, X.; Zvereva, N.; Supko, J. G.; Chorev, M.; Halperin, J. A.; Aktas, B. H. Nat. Chem. Biol. 2011, 7, 610 hereby incorporated by reference.

SMILES	IC50 (KLN) [µM]	IC50 (CRL-2351) [µM]	IC50 (CRL-2813) [µM]	maximal fold induction at 80 µM [1]	maximal fold induction at 10 µM [1]	maximal fold induction at 40 µM [1]	maximal fold induction at 20 µM [1]
CC(C)(C)c1ccc(O)c(C2(c3cccnc3)C(=O)Nc3ccccc32)c1 (centres unmarked) [HY003, 3-(5-tert-Butyl-2-Hydroxyphenyl)-3-(Pyridin-3-yl)Indolin-2-One]	> 20	6.4 ± 3	11.5 ± 1.8	1.67	–	–	–
CN(C)CCOc1ccc(C(C)(C)C)cc1C1(c2ccccc2)C(=O)Nc2ccccc21 (centres unmarked) [Sd028, 3-(5-tert-Butyl-2-(2-(dimethylamino)ethoxy)phenyl)-3-phenylindolin-2-one]	1.2 ± 0.3	1.4 ± 0.3	2.4 ± 0.4	–	2.69 ± 0.36	–	–
C#CCOc1ccc(C(C)(C)C)cc1C1(c2ccccc2)C(=O)Nc2ccccc21 (centres unmarked) [Sd123, 3-[5-tert-butyl-2-(prop-2-yn-1-yloxy)phenyl]-3-phenylindol-2-one]	> 20	17.5 ± 2	> 20	5.1 ± 1.65	–	–	–
CC(C)(C)c1ccc(OCCOC2OC(CO)C(O)C(O)C2O)c(C2(c3cc(C(C)(C)C)ccc3OCCOC3OC(CO)C(O)C(O)C3O)C(=O)Nc3ccccc32)c1 (centres unmarked) [HY190]	> 20	> 20	> 20	–	–	–	–
COc1ccc(C2(c3cc(C(C)(C)C)ccc3OCCN3CCOCC3)C(=O)Nc3ccc(OC(F)(F)F)cc32)cc1 (centres unmarked) [Sd225]	9.3 ± 2.7	2.9 ± 0.27	1.9 ± 0.7	–	–	5.11 ± 0.48	–
COc1ccc(C2(c3cc(C(C)(C)C)ccc3OCCN3CCOCC3)C(=O)Nc3ccccc32)cc1OC (centres unmarked) [Sd152, 3-{5-tert-butyl-2-[2-(morpholin-4-yl)ethoxy]phenyl}-3-(3,4-dimethoxyphenyl)-indol-2-one]	> 20	> 20	> 20	2.8	–	–	–
CC(C)(C)c1ccc(OCCN2CCOCC2)c(C2(c3cc(C(C)(C)C)ccc3OCCN3CCOCC3)C(=O)Nc3ccccc32)c1 [SD167]	> 20	1.68 ± 1.26	2.4 ± 0.1	–	–	–	–
CC(C)(C)c1ccc(O)c(C2(c3ccc(CN4CCOCC4)cc3)C(=O)Nc3ccccc32)c1 (centres unmarked) [HY016, 3-(5-tert-butyl-2-hydroxyphenyl)-3-(4-(Morpholinomethyl)phenyl)Indolin-2-One]	17.3 ± 2.4	7.3 ± 3.6	7.8 ± 0.66	8.5 ± 5.3	–	–	–
CC(C)(C)c1ccc(O)c(C2(c3ccc(O)cc3)C(=O)Nc3c2ccc(F)c3F)c1 (centres unmarked) [Sd141]	15.3 ± 1.9	> 20	10.7 ± 3.9	–	–	2.9 ± 0.6	–
COc1ccc(OC)c(C2(c3cc(O)ccc3OC)C(=O)Nc3ccccc32)c1 (centres unmarked) [HY055]	15.6 ± 0.4	9	9.7 ± 2	1.2 ± 0.6	–	–	–
CC(C)(C)c1ccc(C2(c3cc(C(C)(C)C)ccc3O)C(=O)Nc3ccccc32)c(OCCO)c1 (centres unmarked) [HY069]	> 20	8.8 ± 0.9	2.9 ± 0.3	–	–	10.7 ± 1	–
CC(=O)OCCOc1ccc(C(C)(C)C)cc1C1(c2cc(C(C)(C)C)ccc2OCCOC(C)=O)C(=O)Nc2ccccc21 [HY184]	> 20	2	2	2.07 ± 1.6	–	–	–
CC(C)(C)c1ccc(O)c(C2(c3cc(C(C)(C)C)ccc3OCCN3CCCC3)C(=O)Nc3ccccc32)c1 (centres unmarked) [HY091]	1.4 ± 0.4	1	10.7 ± 0.8	–	2.73 ± 0.65	–	5.3 ± 0.7
CC(C)(C)c1ccc(O)c(C2(c3cc(C(C)(C)C)ccc3OCCN3CCOCC3)C(=O)Nc3ccccc32)c1 (centres unmarked) [HY063]	7.4 ± 2.5	1.6 ± 0.2	3.2 ± 0.2	–	–	4.4 ± 1.5	–
CN(C)c1ccc(C2(c3cc(C(C)(C)C)ccc3O)C(=O)Nc3ccccc32)cc1 (centres unmarked) [Sd153]	10.9 ± 1.3	2.3 ± 0.3	11	–	–	3.55	–
CC(C)(C)c1ccc(O)c(C2(c3cc(C(C)(C)C)ccc3O)C(=O)Nc3ccccc32)c1 [HY021, 3,3-Bis(5-tert-Butyl-2-Hydroxyphenyl)Indolin-2-One]	12 ± 0.7	2.8 ± 0.4	10.2 ± 1.2	–	5.2 ± 2.2	4.4	10.6
CN(C)CCOc1ccc(C(C)(C)C)cc1C1(c2cc(C(C)(C)C)ccc2O)C(=O)Nc2ccccc21 (centres unmarked) [HY077]	1.7 ± 0.9	1.9 ± 1	1.2 ± 0.4	–	–	–	4.65 ± 0.88
CC(C)(C)c1ccc(O)c(C2(c3ccc(O)cc3)C(=O)Nc3ccccc32)c1 (centres unmarked) [Sd096]	17.3 ± 1.8	2	4 ± 0.28	–	–	1.69 ± 0.6	–
CC(C)(C)c1cccc(C2(c3cc(C(C)(C)C)ccc3O)C(=O)N(CCBr)c3ccccc32)c1 (centres unmarked) [HY283]	> 20	1.5 ± 0.7	1.4 ± 0.4	–	–	9.6 ± 0.16	–
COc1ccc(C2(c3cc(C(C)(C)C)ccc3O)C(=O)Nc3c2ccc(F)c3F)cc1 (centres unmarked) [Sd140]	12.3 ± 2	0.95 ± 0.08	3	–	–	1.2 ± 0.46	–
COc1ccc(C2(c3cc(OC(C)C)ccc3OCCN3CCOCC3)C(=O)Nc3ccccc32)cc1 (centres unmarked) [Sd179, 3-(4-Methoxyphenyl)-3-{2-[2-(morpholin-4-yl)ethoxy]-5-(propan-2-yloxy)phenyl}-indol-2-one]	11.8 ± 1	8.6 ± 1	13.4 ± 0.7	2.6 ± 0.14	–	–	–
Cc1cc(C2(c3cc(C(C)(C)C)ccc3O)C(=O)Nc3ccccc32)ccc1Cl (centres unmarked) [HY017, 3-(5-tert-Butyl-2-Hydroxyphenyl)-3-(4-Chloro-3-Methylphenyl)Indolin-2-One]	4.3 ± 1	2.9 ± 0.1	2.9 ± 0.1	–	–	0.65 ± 0.7	–
CCCCc1ccc(O)c(C2(c3ccccc3)C(=O)Nc3ccccc32)c1 (centres unmarked) [Compound 1287, reference compound]	> 20	3.5 ± 0.1	2.8 ± 0.3	–	–	–	–
